Measurements: the NIST ThermoML archive (doi:10.1016/j.jct.2015.05.005)

Conditions: Liquid mixture 1, Pendant drop shape

O=C=O [carbon dioxide] + O
Conditions | interfacial tension [mN/m]
298.4 K, 6830 kPa | 31
298.5 K, 7200 kPa | 30.99
298.5 K, 8100 kPa | 31.09
298.6 K, 6490 kPa | 30.79
298.6 K, 8970 kPa | 30.98
298.6 K, 10630 kPa | 30.73
298.6 K, 13180 kPa | 30.62
298.6 K, 15150 kPa | 30.81
298.6 K, 20830 kPa | 29.84
